pIC50: −log10 of the molar value. Calls of active or inactive are those of the source. The calls are words filed in the database; no cut-off is given here. *1 amine or outer side, *2 acyl side, *3 side chain or, on linkers, in order; H or OH if unused. Where a SMILES comes first, the peptide text is derived from it. [ ]: non-standard residue; d: D form. X2 = CCC[C@@H](N[*:1])[C@H](C)C(=O)O[C@H](C(=O)[*:2])[C@H](C)CC; X1 = C[C@H](N[*:1])C(=O)C(C)(C)C(=O)[*:2]; NMeY = CN[C@@H](Cc1ccc(O)cc1)C(=O)O; NMeL = CN[C@@H](CC(C)C)C(=O)O; NMeV = CN[C@H](C(=O)O)C(C)C; NMeA = CN[C@@H](C)C(=O)O
Legend:
KB = assay: Cytotoxicity against human KB cells; type: functional, cell-based
LoVo = assay: Cytotoxicity against human LoVo cells; type: functional, cell-based
MC-38 = assay: Antitumor activity against mouse colon 38 cells implanted mouse; type: functional, cell-based
Mus musculus = assay: Antitumor activity against mouse mammary adenocarcinoma 16/C cells implanted mouse; type: functional

For `CCC[C@H]1NC(=O)[C@H](C)N(C)C(=O)C(C)(C)C(=O)[C@H](C)NC(=O)[C@H](Cc2ccc(OC)cc2)N(C)C(=O)[C@H](C(C)C)N(C)C(=O)CNC(=O)[C@H](CC(C)C)N(C)C(=O)CNC(=O)[C@H]([C@H](C)CC)OC(=O)[C@H]1C` [lyngbyastatin 3] (cyclo(G[NMeL]G[NMeV][NMeY](Me)[X1][NMeA][X2])), the pIC50 (KB) was 7.49, the pIC50 (LoVo) was 6.40 and the Activity (MC-38) was “inactive”. The Activity (Mus musculus) was “inactive”.

Reference: ChEMBL document CHEMBL1147235, “Isolation and structure determination of lyngbyastatin 3, a lyngbyastatin 1 homologue from the marine cyanobacterium Lyngbya majuscula. Determination of the configuration of the 4-amino-2,2-dimethyl-3-oxopentanoic acid unit in majusculamide C, dolastatin 12, lyngbyastatin 1, and lyngbyastatin 3 …” (J Nat Prod, 2003)
